The subject of series [1] is RNR3 regulatory element-GFP reporter. Briefly: RNR3-GFP reporter microplate assay (pGenRNR3). It counts as cell-based, Saccharomyces cerevisiae. To be noted: yeast test strain transformed with pGenRNR3. From the text:
In addition to the RAD54 vectors described in the previous Examples, the inventors constructed an FF18984 reporter strain containing a replicative plasmid harbouring an RNR regulatory element. The vectors pGenRNR2 or pGenRNR3 are shown in FIGS. 24 and 25, respectively, and contain the upstream non-coding DNA sequence of the RNR2 gene or RNR3 gene fused to the yeast-enhanced Aequorea victoria GFP gene. A control FF18984 strain containing an identical plasmid except that 2 base pairs have been removed at the start of the GFP gene, such that no GFP is made, was also examined.
In order to test the brightness of the reporter for RNR3 constructs, similar methodology was used as for RAD54 constructs, as described in the previous Examples, but using instead pGENRNR3.

Series [2] deals with RAD54 promoter-GFP reporter (pGen001). The following applies: for GSA genotoxicity result: GenT01 yeast, overnight at 25° C., 2% DMSO diluent, no S9.
For series [3], the system named is yeast strain GenT01 (FF18984). Briefly: GreenScreen assay (GSA), cytotoxicity: final cell density by absorbance. To be noted: for Maximum Concentration (% v/v), suggested maximum tolerable solvent concentration: solvent in GSA test samples, toxic at higher concentrations. As for the experimental part:
The following standard protocol was followed. A 1 mM stock of the test chemical was prepared in 2% v/v aqueous DMSO, and used to make 2 identical dilution series across the microplate and a ‘control’ (see below). To achieve this, 150 microlitres of the test chemical solution were put into 2 microplate wells. Each sample was serially diluted by transferring 75 microlitres into 75 microlitres of 2% DMSO, mixing, and then taking 75 microlitres out and into the next well. This produced 9 serial dilutions of 75 microlitres each.
75 microlitres of the yeast suspension were added to each well of the diluted chemical: GenT01 to one series and GenC01 to the second, and to appropriate standards and controls. After the plates were filled, they were sealed using either a gas permeable membrane (Breath-easy, Diversified Biotech, USA) or a plastic lid, and then incubated without shaking, overnight at 25° C.
Following overnight incubation, fluorescence and absorbance data were collected from the microplates. […] Absorbance was measured through a 620 nm filter in both instruments. […] Fluorescence data were divided by absorbance data to give ‘brightness units’, the measure of average GFP induction per cell. […] In this way, one can distinguish between a small number of highly fluorescent cells and a large number of weakly fluorescent cells. In order to correct for induced cellular autofluorescence and intrinsic compound fluorescence, the brightness values for the GenC01 strain were subtracted from those of GenT01. This makes visual assessment of the data more reliable.
The cytotoxicity threshold is set at 80% of the cell density reached by the untreated control cells.
Table 12 lists chemicals/solvents that are often used with test samples, to promote dissolution etc. […] If these chemicals are used to dissolve compound stock solutions, they should also be included in the diluent used to make the compound dilution series. […] Interference of DMSO, a free radical scavenger, in the recombinogenic properties of several oxidising agents has previously been reported.

The test system of a further series is bacteria. The following applies: cited from earlier work.
For series [4] the following is noted: in vivo; cited from earlier work.
Another series deals with SOS umuC. The following applies: cited from earlier work.
A further series concerns SOS lux. The following applies: S9 −; cited from earlier work.
For series [5] the following is noted: other genotoxicity tests and cancer studies; cited from earlier work.
Where [6] appears, read: requires S9 metabolic activation.

Read-outs that look alike come from different tables or passages of the source.

On to `CNNC` [1,2-dimethylhydrazine], for which the “fluorescence induction by the reporter” value in series [1] is recorded as “increases with increasing concentration”. Also, the GSA genotoxicity result in series [2] is “induced”.
As to `CC(O)CCl` (stereo not shown) [1-Chloro-2-propanol], the “Maximum Concentration (% v/v), suggested maximum tolerable solvent concentration” value (shortened to “Maximum Concentration (% v/v)”) in series [3] turned out to be 2 % v/v.
For `CC(=O)Nc1ccc2c(c1)Cc1ccccc1-2` [2-acetamidofluorene], the GSA genotoxicity result in series [2] is reported as “negative”.
With `Nc1cc([N+](=O)[O-])ccc1O` [2-amino-4-nitrophenol], the GSA genotoxicity result in series [2] is recorded as “positive”. Further, in the series with bacteria (setting [6]), the Ames test result is given as “positive”.
For `Nc1ccc2cc3ccccc3cc2c1` [2-aminoanthracene], the GSA genotoxicity result in series [2] is “negative”.
Consider `Nc1nc[nH]n1` [3-amino-1,2,4-triazole], for which the “cancer data / carcinogenicity” value in series [4] was “positive”. Besides, the GSA genotoxicity result in series [2] is listed as “positive”.
In the case of `Nc1ccc(Oc2ccc(N)cc2)cc1` [4,4-oxydianiline], the GSA genotoxicity result in series [2] is “negative”.
Still for that read-out and setting: the result for `Nc1c2ccccc2nc2ccccc12` [9-aminoacridine] reads “negative”.
As to `c1ccc2c(c1)cc1ccc3cccc4ccc2c1c34` [BENZO[A]PYRENE, benzo[a]pyrene], the GSA genotoxicity result in series [2] is reported as “positive”.
Take `O=Cc1ccccc1` [Benzaldehyde]: the GSA cytotoxicity result in series [3] (GenT01 yeast, overnight at 25° C.) is given as “cytotoxic”.
Turning to `N.N.[Cl][Pt][Cl]` [CISPLATIN, cisplatin], in the series on SOS umuC (S9 −), the “SOS UMUC ASSAY (M), LEC” value was 9e-07 M. For the same molecule, the “GSA (M), lowest effective concentration (LEC)” value (“GSA (M)” for short) in series [2] (S9 −) was found to be 6.2e-05 M.
Consider `ClC(Cl)(Cl)Cl` [Carbon tetrachloride], for which the “Maximum Concentration (% v/v)” value in series [3] stood at 2 % v/v.
For `C[S+](C)[O-]` [Dimethylsulfoxide], in series [3], the “Maximum Concentration (% v/v)” value is on record as 5 % v/v.
With `CCOS(C)(=O)=O` [EMS, Ethyl methanesulfonate], the “fluorescence induction by the reporter” value in series [1] is “increases with increasing concentration”.
In the case of `CCO` [Ethanol], the “Maximum Concentration (% v/v)” value in series [3] was determined as 2 % v/v.
For `OO` [HYDROGEN PEROXIDE], the “GSA (M)” value in series [2] (Saccharomyces cerevisiae) was 0.002 M. Moreover, the “SOS LUX ASSAY (M), LEC” value in the series with SOS lux is 5.9e-05 M.
`CO[C@@]12[C@H](COC(N)=O)C3=C(C(=O)C(C)=C(N)C3=O)N1C[C@@H]1N[C@@H]12` [MITOMYCIN C, mitomycin C]: the “SOS UMUC ASSAY (M), LEC” value in the series on SOS umuC (S9 −) is 1e-08 M. In addition, in the series with SOS lux, the “SOS LUX ASSAY (M), LEC” value is 4.7e-08 M.
Turning to `CO` [Methanol], the “Maximum Concentration (% v/v)” value in series [3] is listed as 2 % v/v.
Take `CCn1cc(C(=O)O)c(=O)c2ccc(C)nc21` [NALIDIXIC ACID]: in series [2] (S9 −), the “GSA (M)” value is 1.6e-06 M.
For the molecule `Cc1cc2nc3ccc(N(C)C)cc3nc2cc1N.Cl` [Neutral Red], the GSA genotoxicity result in series [2] is reported as “positive”. Also, the Ames test result in the series with bacteria is given as “positive”.
As for `[N-]=[N+]=[N-]` [SODIUM AZIDE], the “SOS UMUC ASSAY (M), LEC” value in the series on SOS umuC was 0.0054 M. In addition, the “GSA (M)” value in series [2] (Saccharomyces cerevisiae) is 1e-05 M.
Regarding `C1CCOC1` [Tetrahydrofuran], the “Maximum Concentration (% v/v)” value in series [3] was determined as 2 % v/v.
As to `Nc1ccccc1` [aniline], the “cancer data / carcinogenicity” value in series [4] is “carcinogens”. The GSA genotoxicity result in series [2] was “negative”. For the same molecule, the Ames test result was “not detectable” in the series with bacteria; “negative” in the series on bacteria (with and without S9).
Turning to `CN/C(=N/CCSCc1nc[nH]c1C)NC#N` [cimetidine], the “corresponding data from other tests” value in series [5] is recorded as “no corresponding positive data”. Also, in series [2], the GSA genotoxicity result was “positive”.
Take `COc1cc2c(c(OC)c1OC)-c1ccc(OC)c(=O)cc1[C@@H](NC(C)=O)CC2` [colchicine]: the GSA genotoxicity result in series [2] is on record as “responds”.
Still for that read-out and setting: in the case of `Clc1ccc(COC(Cn2ccnc2)c2ccc(Cl)cc2Cl)cc1` (stereo not shown) [econazole] it was “responds”; in that of `Cc1c2ccncc2c(C)c2c1[nH]c1ccccc12` [ellipticine], “responds”.
Take `CC[n+]1c(-c2ccccc2)c2cc(N)ccc2c2ccc(N)cc21` [ethidium bromide]: the Ames test result in the series with bacteria (setting [6]) is “positive”.
With `COc1cc([C@@H]2c3cc4c(cc3[C@@H](O[C@@H]3O[C@@H]5CO[C@@H](C)O[C@H]5[C@H](O)[C@H]3O)[C@H]3COC(=O)[C@H]23)OCO4)cc(OC)c1O` [etoposide], the GSA genotoxicity result in series [2] is “responds”.
Same read-out and setting: the result for `CN(C)CCN(Cc1cccs1)c1ccccn1` [methapyraline] reads “induced”; that for `C[n+]1ccc(-c2cc[n+](C)cc2)cc1` [methyl viologen], “induced”.
In the case of `CCCCC(CC)COC(=O)c1ccccc1C(=O)OCC(CC)CCCC` (stereo not shown) [phthalic acid bis(2-ethylhexyl) ester], the GSA genotoxicity result in series [2] is “induced”.
Regarding `C=CCc1ccc2c(c1)OCO2` [safrole], the “cancer data / carcinogenicity” value in series [4] is “carcinogens”. Further, the Ames test result in the series on bacteria is “not detectable”.
In the case of `NC(N)=S` [thiourea], the “cancer data / carcinogenicity” value in series [4] is on record as “carcinogens”. Also, in the series with bacteria, the Ames test result is reported as “not detectable”.
With `CCOC(N)=O` [urethane], the “cancer data / carcinogenicity” value in series [4] is “carcinogens”. The Ames test result in the series on bacteria is on record as “not detectable”.
bleomycin: in series [2], the GSA genotoxicity result is listed as “induced”.
Turning to phleomycin, in series [2], the GSA genotoxicity result is listed as “induced”.
For proflavin hemisulfate, the GSA genotoxicity result in series [2] is “positive”. In addition, the Ames test result in the series with bacteria (setting [6]) was “positive”.
On to tritolyl phosphate, for which, in series [5], the “corresponding data from other tests” value is listed as “no corresponding positive data”.

The values above are taken from patent publication US20080064053A1, “Genotoxicity Testing” (priority 2003, published 2008).
